Read-outs that look alike come from different tables or passages of the source.
Key:
TNFα = assay: Measurement of LPS Induced-TNFα in THP-1 Cells; assay type: cell-based, human; conditions: Homo sapiens, THP-1
Lipid peroxidation = Lipid peroxidation inhibition (method of Ohkawa); assay type: biochemical
[1] = system: bFGF-induced angiogenesis in the CAM model; assay: bFGF (FGF2)-stimulated CAM model; assay type: in vivo, chicken; conditions: bFGF/FGF2 1 ug, 30 ug injected
Procedure: (§1) In vivo neovascularization was examined by the method previously described by Auerbach et al. (J. Dev. Biol. 41:391-394 (1974)). Ten-day old chicken embryos were purchased from Spafas, Inc. (Preston, Conn.) and were incubated at 37° C. with 55% relative humidity. In the dark, with the aid of a candling lamp, a small hole was punctured in the shell concealing the air sac with a hypodermic needle. A second hole was punctured in the shell on the broadside of the egg directly over an […] portion of the embryonic membrane, as observed during candling. An artificial air sac was created beneath the second hole by applying gentle vacuum to the first hole using a small rubber squeeze bulb. The vacuum caused the chorioallantoic membrane (CAM) to separate from the shell.
For inducing angiogenesis, sterile filter disks were saturated with bFGF (1 μg/ml) (Life Technologies, Gaithersburg, Md.) or other pro-angiogenesis factors and control disks were saturated with PBS without Calcium and Magnesium. Control disks were saturated with PBS without Calcium and Magnesium.
After 24-48 hr, 10-25 ul of test agent was injected intravenously or added topically into the CAM membrane. Eight-Ten eggs/treatment group were used.
(§2) The number of vessel branch points contained in a circular region equal to the area of a filter disk was counted for each section. Percent inhibition data are expressed as the quotient of the experimental value minus the negative control value divided by the difference between the positive control value and the negative control value. One image was counted in each CAM preparation, and findings from eight CAM preparations were analyzed for each treatment condition. In addition, each experiment was performed three times. The resulting angiogenesis index is the mean ±SEM (Standard Error of Measurement) of new branch points in each set of treatment. Statistical analysis of blood vessel branching patterns are performed by 1-way analysis of variance (ANOVA) comparing experimental with corresponding control groups. Statistical significance differences are assessed at P value of <0.05.
The CAM model protocol was modified to include stimulus with bFGF. The effect of injected OT 551 was assayed.
TP-H was applied to the CAM model study to determine its respective anti-angiogenesis effects according to the materials and methods provided in Example 1. Basic Fibroblast Growth Factor (bFGF) was used to induce angiogenesis in the CAM model.
Compounds were introduced via injection to the CAM model study to determine its respective anti-angiogenesis effects according to the materials and methods provided in Example 1. bFGF was used to induce angiogenesis in the CAM model.

[2] = system: Doxorubicin resistant SaOS2 cells; assay: Cancer cell viability (MTT) in the presence or absence of doxorubicin; assay type: cell-based, human; conditions: compound 50 ug/mL, 3 days
[3] = system: doxorubicin-sensitive and doxorubicin-resistant cells (osteosarcoma, breast cancer, neuroblastoma); assay: Evaluation of chemoresistance, Compound 4 alone or combined with doxorubicin; assay type: cell-based, human
Procedure: A method for evaluating a compound's propensity to overcome cancer cell chemoresistance is described in “Caspase Inhibition Switches Doxorubicin-Induced Apoptosis To Senescence”, Abdelhadi Rebbaa, Xin Zheng, Pauline M Chou and Bernard L Mirkin, Oncogene (2003) 22, 2805-2811. Human neuroblastoma SKN-SH cells (ATCC Cat. No. HTB-11) were cultured in Dulbecco's Modified Eagles Medium (DMEM; Gibco, Grand Island, N.Y.) supplemented with 10% fetal bovine serum (FBS; Sigma-Aldrich, St. Louis, Mo.) at 37° C. in a 95% Air/5% CO2 atmosphere. Resistant human cancer cells to doxorubicin were selected by stepwise exposure to drug concentrations ranging from 10^−9M-10^−6M over 3 months. They were then subjected to treatment with the doxorubicin alone or in combination with hydroxylamine compounds. The cells were incubated with the drugs for 72 hours, and cell viability was measured by the MTT assay. This consists of adding 10 μl/well of MTT (5 mg/ml solution) and incubation for 4 h at 37° C. The precipitate formed is then solubilized by addition of 100 μl of HCL 0.5 N/Isopropanol and incubation for 15 hours at 37° C. The optical density is measured at 570 nm and cell survival is estimated by comparison to untreated cells. Each point represents 4 wells data represent average +/−SE. Additionally, molecular pathways that might be associated with increased chemo-responsiveness with these compounds were investigated.
Cytotoxic activity of doxorubicin and hydroxylamine analogs were quantitatively determined by a colorimetric assay utilizing 3-(4,5-dimethyl-2-thiazolyl) 2,5-diphenyl tetrazolium bromide (MTT; Sigma-Aldrich, St. Louis, Mo.). Briefly, cells were seeded at 10^4 cells/well in 96-well plates and maintained in culture for 24 hours at 37° C. in DMEM supplemented with 10% FBS. […] The optical density of this solution was measured at 570 nm and the percentage of viable cells estimated by comparison with untreated control cells.

[4] = system: Human whole blood clot formation; conditions: for Clot Strength - MA / Time to Clot Initiation R: TEG, human whole blood
Procedure: TEG: Human whole blood (±drugs) was added to the cylindrical cuvette (“cup”). […] The cup oscillates 4°45′ ( 1/12 radian) in either direction every 4.5 seconds, with a 1-second mid-cycle stationary period, resulting in a frequency of 0.1 Hz and a maximal shear rate of 0.1 per second. The pin was suspended by a torsion wire that acts as a torque transducer. […] The torque experienced by the pin (relative to the oscillation of the cup) was plotted as a function of time (Forsythe, S. A. M. S. K. M. S. (2000): “Comparative In Vitro Efficacy of Different Platelet Glycoprotein IIb/IIIa Antagonists on Platelet-Mediated Clot Strength Induced by Tissue Factor With Use of Thromboelastography.” Arteriosclerosis, Thrombosis, and Vascular Biology 20: 1162).
(Data represent mean ±SD, n=6 (blood form normal healthy volunteers), *P<0.01 as compared to control)

[5] = system: H2O2-induced angiogenesis in the CAM model; assay: H2O2-induced angiogenesis in the CAM model; assay type: in vivo, chicken; conditions: for Branch pts ± SEM: H2O2 88 μM, 30 ng
Procedure: as §1
A pro-angiogenic agent was added to induce new blood vessel branches on the CAM of 10-day old embryos. Filter disks of #1 filter paper (Whatman International, United Kingdom) were punched using a small puncher and were soaked in 3 mg/mL cortisone acetate (Sigma, St. Louis, Mo.) in a solution (95% ethanol and water). The disks were subsequently air dried under sterile conditions. The disks were then suspended in PBS (Phosphate Buffered Saline) and placed on growing CAMs. Filters treated with TP-H (TEMPOL-H) or TEMPOL and/or H2O2 or TP-H and/or bFGF or VEGF were placed on the first day of the 3-day incubation.
as §2
TP-H (TEMPOL-H, the hydroxylamine reduced form of the nitroxide 4-hydroxy-2,2,6,6-tetramethylpiperidin-1-yloxy) or TEMPOL (4-hydroxy-2,2,6,6-tetramethylpiperidine-N-oxyl radical) was applied to the CAM model study to determine its respective anti-angiogenesis effects according to the materials and methods provided in Example 1. H2O2 was used to induce angiogensis in the CAM model.

[6] = system: selenite induced cataract; assay: Selenite induced cataract in mice; conditions: mouse, in vivo
From the text: In addition, as mentioned above, there is no precedent for the prevention of growth factor-induced angiogenesis by either TEMPOL or hydroxylamines.

mouse V79 cells = conditions: cited from earlier work
lens endothelial cells = conditions: in vitro; cited from earlier work
[7] = Bevacizumab 1 ng/cup + Comp. 4 1 uM
[8] = Bevacizumab 1 ng/cup + Comp. 4 10 uM
[9] = Ranibizumab 1 ng/cup + Comp. 4 1 uM
[10] = Ranibizumab 1 ng/cup + Comp. 4 10 uM

CC1(C)CC(Oc2nsnc2N2CCOCC2)CC(C)(C)N1O.Cl [Compound 4, 4-(4-(2,2,6,6-tetramethylpiperidin-1-hydroxyl-4-yloxy)-1,2,5-thiazol-3-yl)morpholine hydrogen chloride]
inhibition at 10 µM (TNFα; compound 10 uM, 5 ng/mL LPS, read-out: Mean Percent Inhibition of TNF-alpha using 5 ng/mL LPS): 61 ± 10% | IC50 (TNFα; read-out: TNFalpha IC50): 6.7 µM | % Lipid Peroxidation inhibition (at 1 uM) (Lipid peroxidation; 1 uM): 87.0% | Lipid Peroxidation Inhibition, % Inhibition (Lipid peroxidation; 10 uM): 91.4% | inhibition in vivo at 0.03 mg ([1]; Gallus gallus, read-out: % Inhibition ± SEM): 92.8 ± 16.5% | Branch pts ± SEM [1]: 72.3 ± 12.2 | Mean OD (×10^−3), MTT viability ([2]; Dox. 10^−6 M (+)): 88.00 ×10^−3 | Mean OD (×10^−3), MTT viability ([2]; absence of Dox. (−)): 468.50 ×10^−3 | underlying mechanism (cell cycle arrest, apoptosis markers) [3]: increased expression of p21/WAF1 and caspase-3 activation | reversal of drug resistance ([3]; combined with doxorubicin, osteosarcoma, breast cancer, neuroblastoma): strong ability to reverse drug resistance | killing of cells, compound alone ([3]; doxorubicin-sensitive and doxorubicin-resistant cells): enhanced the killing of both doxorubicin-sensitive (P<0.001) and doxorubicin-resistant cells | Clot Strength - MA [4, 7]: 9.6 ± 2.3 mm | Time to Clot Initiation R [4, 7]: 14.3 ± 2.2 min | Clot Strength - MA [4, 8]: 5.0 ± 1.2 mm | Time to Clot Initiation R [4, 8]: 21.3 ± 4.2 min | Clot Strength - MA [4, 9]: 6.7 ± 1.5 mm | Time to Clot Initiation R [4, 9]: 16.8 ± 1.7 min | Clot Strength - MA [4, 10]: 2.7 ± 0.7 mm | Time to Clot Initiation R [4, 10]: 23.3 ± 2.3 min | effect on clot formation with Bevacizumab/Ranibizumab ([4]; compound 4 at 1 ug and 10 ug): delayed the clot formation

CC1(C)CC(O)CC(C)(C)N1[O] [TEMPOL, 4-hydroxy-2,2,6,6-tetramethylpiperidine-N-oxyl radical, reference compound]
Branch pts ± SEM ([5]; 100 μg): 152.2 ± 18.8 | Branch pts ± SEM ([5]; 200 μg): 151.8 ± 12.5 | Branch pts ± SEM ([5]; 400 μg): 150.0 ± 7.7 | Branch pts ± SEM ([5]; 800 μg): 122.8 ± 3.0 | inhibition of angiogenesis induced by super-maximal concentrations of H2O2 ([5]; in vivo): effectively inhibited | prevention of selenite induced cataract [6]: not effective | radioprotection of mouse V79 cells (mouse V79 cells): concentration dependent | prevention of X-ray radiation damage to lens endothelial cells (lens endothelial cells): prevented X-ray radiation damage
